Assay results reported in PubChem BioAssay (NCI).
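Each compound was tested at five concentrations against cells in 96-well plates for 48 hours. The concentration for full growth arrest is given as TGI.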

Experiments:
Assay in all cases: NCI-60 cell line screen, 48 h
786-0 renal = test system: 786-0 renal
A498 renal = test system: A498 renal
A549 NSCLC = test system: A549 NSCLC
ACHN renal = test system: ACHN renal
CAKI-1 renal = test system: CAKI-1 renal
CCRF-CEM leukemia = test system: CCRF-CEM leukemia
COLO 205 colon = test system: COLO 205 colon
DLD-1 colon = test system: DLD-1 colon
DMS 114 small cell lung = test system: DMS 114 small cell lung
DMS 273 small cell lung = test system: DMS 273 small cell lung
EKVX NSCLC = test system: EKVX NSCLC
HCC-2998 colon = test system: HCC-2998 colon
HCT-116 colon = test system: HCT-116 colon
HCT-15 colon = test system: HCT-15 colon
HL-60(TB) leukemia = test system: HL-60(TB) leukemia
HOP-62 NSCLC = test system: HOP-62 NSCLC
HOP-92 NSCLC = test system: HOP-92 NSCLC
HT29 colon = test system: HT29 colon
IGROV1 ovarian = test system: IGROV1 ovarian
K-562 leukemia = test system: K-562 leukemia
KM12 colon = test system: KM12 colon
KM20L2 colon = test system: KM20L2 colon
LOX IMVI melanoma = test system: LOX IMVI melanoma
LXFL 529 NSCLC = test system: LXFL 529 NSCLC
M14 melanoma = test system: M14 melanoma
M19-MEL melanoma = test system: M19-MEL melanoma
MALME-3M melanoma = test system: MALME-3M melanoma
MOLT-4 leukemia = test system: MOLT-4 leukemia
NCI-H226 lung = test system: NCI-H226 lung
NCI-H23 lung = test system: NCI-H23 lung
NCI-H460 lung = test system: NCI-H460 lung
NCI-H522 lung = test system: NCI-H522 lung
OVCAR-3 ovarian = test system: OVCAR-3 ovarian
OVCAR-4 ovarian = test system: OVCAR-4 ovarian
OVCAR-5 ovarian = test system: OVCAR-5 ovarian
OVCAR-8 ovarian = test system: OVCAR-8 ovarian
RPMI-8226 leukemia = test system: RPMI-8226 leukemia
RXF 393 renal = test system: RXF 393 renal
RXF-631 renal = test system: RXF-631 renal
SF-295 CNS = test system: SF-295 CNS
SF-539 CNS = test system: SF-539 CNS
SK-MEL-2 melanoma = test system: SK-MEL-2 melanoma
SK-MEL-28 melanoma = test system: SK-MEL-28 melanoma
SK-MEL-5 melanoma = test system: SK-MEL-5 melanoma
SK-OV-3 ovarian = test system: SK-OV-3 ovarian
SN12C renal = test system: SN12C renal
SNB-19 CNS = test system: SNB-19 CNS
SNB-75 CNS = test system: SNB-75 CNS
SNB-78 CNS = test system: SNB-78 CNS
SR leukemia = test system: SR leukemia
SW-620 colon = test system: SW-620 colon
TK-10 renal = test system: TK-10 renal
U251 CNS = test system: U251 CNS
UACC-257 melanoma = test system: UACC-257 melanoma
UACC-62 melanoma = test system: UACC-62 melanoma
UO-31 renal = test system: UO-31 renal
XF 498 CNS = test system: XF 498 CNS

Measured: TGI

CCN(CC)CCCN1CCc2c([nH]c3ccccc23)C1c1cccnc1 (configuration not stated)
> 100 µM: all assays above
